Measurements from ChEMBL document CHEMBL4334494, “Recent advances in the targeting of human DNA ligase I as a potential new strategy for cancer treatment” (Eur J Med Chem, 2019).
Values belong to the molecule of their own block, whether it stands above or below them.

Tests used:
DNA ligase 1 [1] = target: T1, DNA ligase 1 (Homo sapiens, UniProt P18858); test: Inhibition of human DNA ligase 1 at 50 uM using 52-mer DNA/25-mer DNA/27-mer DNA as substrate by fluorescence assay relative to control
HT-29 = test: Antiproliferative activity against human HT-29 cells after 48 hrs by MTT assay; format: functional, cell-based; details: HT-29, 48 h
MDA-MB-231 [2] = test: Antiproliferative activity against human MDA-MB-231 cells after 48 hrs by MTT assay; format: functional, cell-based; details: MDA-MB-231, 48 h
HeLa = test: Antiproliferative activity against human HeLa cells after 48 hrs by MTT assay; format: functional, cell-based
HCT-116 [3] = test: Antiproliferative activity against human HCT116 cells after 48 hrs by MTT assay; format: functional, cell-based; details: HCT-116, 48 h
4T1 = test: Antiproliferative activity against mouse 4T1 cells after 48 hrs by MTT assay; format: functional, cell-based; details: 4T1, 48 h
HepG2 [4] = test: Antiproliferative activity against human HepG2 cells after 48 hrs by MTT assay; format: functional, cell-based; details: HepG2, 48 h
DLD-1 [5] = test: Antiproliferative activity against human DLD1 cells after 48 hrs by MTT assay; format: functional, cell-based; details: DLD-1, 48 h
DNA ligase 1 [6] = target: T1, DNA ligase 1; test: Inhibition of human DNA ligase 1 expressed in Escherichia coli BL21DE3RP cells at 50 uM using 52-mer DNA/25-mer DNA/27-mer DNA as substrate after 30 mins by Cyanin3 dye-based fluorescence assay relative to control
DNA ligase 1 [7] = target: T1, DNA ligase 1; test: Inhibition of human DNA ligase 1 using 52-mer DNA/25-mer DNA/27-mer DNA as substrate by fluorescence assay
HEK293 = test: Cytotoxicity against HEK293 cells at 100 uM relative to control; format: cell-based; details: human, hek293, 100 µM
DLD-1 [8] = test: Antiproliferative activity against human DLD1 cells at 100 uM relative to control; format: functional
A549 = test: Antiproliferative activity against human A549 cells at 100 uM relative to control; format: functional
HCT-116 [9] = test: Antiproliferative activity against human HCT116 cells at 100 uM relative to control; format: functional
HepG2 [10] = test: Antiproliferative activity against human HepG2 cells at 100 uM relative to control; format: functional
MDA-MB-231 [11] = test: Antiproliferative activity against human MDA-MB-231 cells at 100 uM relative to control; format: functional

T1 sequence (P18858 whole entry): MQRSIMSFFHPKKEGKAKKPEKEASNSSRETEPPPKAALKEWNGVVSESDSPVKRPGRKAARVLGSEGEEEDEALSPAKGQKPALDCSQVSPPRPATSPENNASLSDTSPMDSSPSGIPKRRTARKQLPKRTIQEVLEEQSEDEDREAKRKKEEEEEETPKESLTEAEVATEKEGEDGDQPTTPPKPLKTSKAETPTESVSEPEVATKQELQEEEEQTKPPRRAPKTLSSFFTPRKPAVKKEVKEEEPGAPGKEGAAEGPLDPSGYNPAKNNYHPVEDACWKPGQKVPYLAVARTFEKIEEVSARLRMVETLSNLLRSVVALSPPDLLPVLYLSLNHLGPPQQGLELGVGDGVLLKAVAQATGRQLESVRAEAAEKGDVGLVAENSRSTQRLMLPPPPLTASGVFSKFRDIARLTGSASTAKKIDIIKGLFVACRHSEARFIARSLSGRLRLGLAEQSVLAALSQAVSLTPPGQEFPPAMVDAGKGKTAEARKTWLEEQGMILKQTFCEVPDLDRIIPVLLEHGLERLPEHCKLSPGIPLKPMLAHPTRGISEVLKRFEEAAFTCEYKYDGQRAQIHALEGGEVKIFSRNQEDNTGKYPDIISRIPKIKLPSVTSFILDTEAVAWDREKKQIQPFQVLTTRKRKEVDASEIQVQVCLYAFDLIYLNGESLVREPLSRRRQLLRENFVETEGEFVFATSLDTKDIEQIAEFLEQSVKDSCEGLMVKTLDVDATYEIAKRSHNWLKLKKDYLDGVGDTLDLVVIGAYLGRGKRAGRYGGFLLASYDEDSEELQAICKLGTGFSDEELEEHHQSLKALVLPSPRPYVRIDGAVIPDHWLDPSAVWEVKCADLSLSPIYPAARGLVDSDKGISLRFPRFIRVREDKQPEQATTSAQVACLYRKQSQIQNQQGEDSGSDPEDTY

Compound: COc1ccc(N2C(=O)C3C4C=CC(CNC(=S)Nc5ccc(OC)cc5[N+](=O)[O-])(O4)C3C2=O)cc1 (configuration not stated)
- inhibition (DNA ligase 1 [1]): 65%

Compound: CCOC(=O)N1CCN(CC(=O)Nc2cc(C)nc3ccc(NC(=O)Nc4ccc(C)c(Cl)c4)cc23)CC1
- inhibition (DNA ligase 1 [1]): 98.6%

Compound: CC1(C)CC[C@]2(C(=O)O)CC[C@]3(C)C(=CC[C@@H]4[C@@]5(C)CC[C@H](O)C(C)(C)[C@@H]5CC[C@]43C)[C@@H]2C1 [OLEANOLIC_ACID]
- IC50 (DNA ligase 1 [7]): 186 µM

Compound: COc1cc([N+](=O)[O-])ccc1NC(=S)NCC12C=CC(O1)C1C(=O)N(c3ccc(C)cc3)C(=O)C12 (configuration not stated)
- inhibition (DNA ligase 1 [1]): 98.2%

Compound: CCOC(=O)C1=C(C)NC(=O)NC1c1cc(C)c(O)c(/C=N/NC(=S)NC)c1 (configuration not stated)
- Activity (HEK293): > 80%
- inhibition at 100 µM (DLD-1 [8]): > 80%
- inhibition at 100 µM (A549): > 80%
- inhibition at 100 µM (HCT-116 [9]): > 80%
- inhibition at 100 µM (HepG2 [10]): > 80%
- inhibition at 100 µM (MDA-MB-231 [11]): > 80%

Compound: CCOC(=O)C1=C(C)NC(=O)NC1c1cc(/C=N/NC(=S)NC)c(O)c(C(C)(C)C)c1 (configuration not stated)
- Activity (HEK293): > 80%
- inhibition at 100 µM (DLD-1 [8]): > 80%
- inhibition at 100 µM (A549): > 80%
- inhibition at 100 µM (HCT-116 [9]): > 80%
- inhibition at 100 µM (HepG2 [10]): > 80%
- inhibition at 100 µM (MDA-MB-231 [11]): > 80%

Compound: CCOC(=O)C1=C(C)NC(=S)NC1c1cc(C)c(O)c(/C=N/NC(=O)Nc2ccc(Cl)cc2)c1 (configuration not stated)
- Activity (HEK293): > 80%
- inhibition at 100 µM (DLD-1 [8]): > 80%
- inhibition at 100 µM (A549): > 80%
- inhibition at 100 µM (HCT-116 [9]): > 80%
- inhibition at 100 µM (HepG2 [10]): > 80%
- inhibition at 100 µM (MDA-MB-231 [11]): > 80%

Compound: O=c1c(O)c(-c2ccc(O)cc2O)oc2cc(O)cc(O)c12 [MORIN]
- IC50 (DNA ligase 1 [7]): 225 µM

Compound: CCOC(=O)C1=C(C)NC(=S)NC1c1cc(/C=N/NC(=O)Nc2ccc(Cl)cc2)c(O)c(C(C)(C)C)c1 (configuration not stated)
- Activity (HEK293): < 80%
- inhibition at 100 µM (DLD-1 [8]): < 80%
- inhibition at 100 µM (A549): < 80%
- inhibition at 100 µM (HCT-116 [9]): < 80%
- inhibition at 100 µM (HepG2 [10]): < 80%
- inhibition at 100 µM (MDA-MB-231 [11]): < 80%

Compound: C=C1C(=O)OC(CCCCCCCCCCCCC)C1C(=O)O (stereo not drawn) [(+/-)-Protolichesterinic acid]
- IC50 (DNA ligase 1 [7]): 18.5 µM

Compound: CCOC(=O)C1=C(C)NC(=O)NC1c1cc(/C=N/NC(N)=S)c(O)c(C(C)(C)C)c1 (configuration not stated)
- Activity (HEK293): > 80%
- inhibition at 100 µM (DLD-1 [8]): > 80%
- inhibition at 100 µM (A549): > 80%
- inhibition at 100 µM (HCT-116 [9]): > 80%
- inhibition at 100 µM (HepG2 [10]): > 80%
- inhibition at 100 µM (MDA-MB-231 [11]): > 80%

Compound: COc1cc2c(ccc3c4cc(OC)c(OC)cc4c[n+](C)c23)cc1O [FAGARONINE]
- IC50 (DNA ligase 1 [7]): 25.9 µM

Compound: CCOC(=O)C1=C(C)NC(=O)NC1c1cc(C)c(O)c(/C=N/NC(N)=O)c1 (configuration not stated)
- Activity (HEK293): < 80%
- inhibition at 100 µM (DLD-1 [8]): < 80%
- inhibition at 100 µM (A549): < 80%
- inhibition at 100 µM (HCT-116 [9]): < 80%
- inhibition at 100 µM (HepG2 [10]): < 80%
- inhibition at 100 µM (MDA-MB-231 [11]): < 80%

Other lines, results leading:

- inhibition (DNA ligase 1 [1]): 42.4%
Compound: CC(=O)c1ccc(NC(=O)Nc2ccc3nc(C)cc(NC(=O)c4ccco4)c3c2)cc1

- inhibition (DNA ligase 1 [1]): 76.2%
Compound: CC(=O)c1ccc(NC(=O)Nc2ccc3nc(C)cc(NC(=O)c4ccccc4)c3c2)cc1

- IC50 (HT-29): < 10 µM
- IC50 (MDA-MB-231 [2]): < 10 µM
- IC50 (HeLa): < 10 µM
- IC50 (HCT-116 [3]): < 10 µM
- IC50 (4T1): < 10 µM
- IC50 (HepG2 [4]): < 10 µM
- IC50 (DLD-1 [5]): < 10 µM
- inhibition (DNA ligase 1 [6]): > 75%
Compound: O=C1/C(=C/c2ccc(F)cc2)CN(C(=S)NCCc2ccccc2)C/C1=C\c1ccc(F)cc1

- inhibition (DNA ligase 1 [1]): 12.2%
Compound: COc1ccc(NC(=O)Nc2ccc3nc(C)cc(NC(=O)c4ccccc4Cl)c3c2)cc1

- IC50 (DNA ligase 1 [7]): 65.1 µM
Compound: COc1cc2c[n+](C)c3c4cc5c(cc4ccc3c2cc1OC)OCO5 [NITIDINE CHLORIDE]

- IC50 (HT-29): < 10 µM
- IC50 (MDA-MB-231 [2]): < 10 µM
- IC50 (HeLa): < 10 µM
- IC50 (HCT-116 [3]): < 10 µM
- IC50 (4T1): < 10 µM
- IC50 (HepG2 [4]): < 10 µM
- IC50 (DLD-1 [5]): < 10 µM
- inhibition (DNA ligase 1 [6]): > 75%
Compound: CCCCNC(=S)N1C/C(=C\c2ccccc2C)C(=O)/C(=C/c2ccccc2C)C1

- inhibition (DNA ligase 1 [1]): 99.6%
Compound: O=C1NC(=O)/C(=C/c2ccc(OCCCCCOc3cccc(C(=O)/C=C/c4ccc5c(c4)OCO5)c3)cc2)S1

- IC50 (HT-29): < 10 µM
- IC50 (MDA-MB-231 [2]): < 10 µM
- IC50 (HeLa): < 10 µM
- IC50 (HCT-116 [3]): < 10 µM
- IC50 (4T1): < 10 µM
- IC50 (HepG2 [4]): < 10 µM
- IC50 (DLD-1 [5]): < 10 µM
- inhibition (DNA ligase 1 [6]): > 75%
Compound: O=C1/C(=C/c2ccc(F)cc2)CN(C(=S)NC(=O)c2ccccc2)C/C1=C\c1ccc(F)cc1
